Consider eight compounds from PubChem BioAssay (NCI).

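Method: 48-hour compound exposure of cells in 96-well plates, five concentrations, linear interpolation of endpoints. TGI denotes the concentration required for complete inhibition of growth.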

Among the test systems are 786-0 renal; A549 NSCLC; CCRF-CEM leukemia; EKVX NSCLC; HCT-116 colon; HOP-62 NSCLC; HS 578T breast; MDA-N; OVCAR-8 ovarian; SNB-75 CNS; SW-620 colon; UACC-62 melanoma; DU-145 prostate; HCC-2998 colon; SK-MEL-2 melanoma; A498 renal.
Common to all, as to experiment: NCI-60 cell line screen, 48 h

For the compound `NC1=NCC(CN2CCCCC2)O1` (configuration not stated), the TGI in the assay with 786-0 renal, in the assay with A549 NSCLC, in the assay with CCRF-CEM leukemia, in the assay with EKVX NSCLC, in the assay on HCT-116 colon and with HOP-62 NSCLC was over 100 µM throughout. In addition, the TGI with HS 578T breast, in the assay on MDA-N, in the assay on OVCAR-8 ovarian, in the assay on SNB-75 CNS, in the assay with SW-620 colon and in the assay on UACC-62 melanoma was over 100 µM each time.
Regarding `COc1ccc(N=C(CS(=O)c2ccc(C)cc2)C(F)(F)F)cc1` (configuration not stated), the TGI with 786-0 renal, in the assay on A549 NSCLC, in the assay on CCRF-CEM leukemia, in the assay on DU-145 prostate, in the assay with EKVX NSCLC and with HCC-2998 colon was over 100 µM each time. Also, the TGI in the assay on HCT-116 colon, with MDA-N, with OVCAR-8 ovarian, in the assay with SK-MEL-2 melanoma, in the assay with SNB-75 CNS and with SW-620 colon was over 100 µM in each case. The same compound came in with a TGI in the assay on UACC-62 melanoma of over 100 µM.
`OCC1C2CCC3(OCCO3)C12` (configuration not stated): the TGI with 786-0 renal, in the assay with A549 NSCLC, with CCRF-CEM leukemia, with DU-145 prostate, with EKVX NSCLC and in the assay on HCC-2998 colon was over 100 µM each time. Besides, the TGI in the assay with HCT-116 colon, in the assay on HOP-62 NSCLC, with MDA-N, in the assay with OVCAR-8 ovarian, in the assay with SK-MEL-2 melanoma and in the assay with SNB-75 CNS was over 100 µM each time. Moreover, the TGI is over 100 µM in the assay with SW-620 colon and 33 µM with UACC-62 melanoma.
Take `CCOc1ccc(N2C(=O)NC3(c4ccccc4)N(C)C(=O)N(C)C23c2ccccc2)cc1` (configuration not stated): the TGI with 786-0 renal, with A498 renal, in the assay on A549 NSCLC, in the assay on CCRF-CEM leukemia, in the assay on DU-145 prostate and with EKVX NSCLC was over 100 µM in each case. The TGI in the assay on HCT-116 colon is over 100 µM; with HOP-62 NSCLC, over 100 µM; in the assay with MDA-N, over 100 µM; in the assay with OVCAR-8 ovarian it was over 100 µM; with SK-MEL-2 melanoma, over 100 µM; in the assay with SNB-75 CNS, 63.5 µM. The TGI in the assay on SW-620 colon and with UACC-62 melanoma was over 100 µM each time.
For `O=[N+]([O-])c1cnc(N(CCO)CCO)s1`, the TGI with 786-0 renal, with A498 renal, in the assay with A549 NSCLC, in the assay on CCRF-CEM leukemia, with DU-145 prostate and in the assay on EKVX NSCLC was over 100 µM in each case. Besides, the TGI in the assay with HCC-2998 colon, in the assay with HCT-116 colon, in the assay on HOP-62 NSCLC, in the assay on MDA-N, in the assay on OVCAR-8 ovarian and with SK-MEL-2 melanoma was over 100 µM in each case. In addition, the results for the TGI in the assay with SNB-75 CNS, in the assay on SW-620 colon and in the assay on UACC-62 melanoma were 0.341 µM, over 100 µM and over 100 µM, respectively.
As for `COC(=O)CN=C1NC(=S)N(Cc2ccc(OC)cc2)C12CCCC2`, the TGI in the assay on 786-0 renal, in the assay on A498 renal, with A549 NSCLC, with CCRF-CEM leukemia, with DU-145 prostate and in the assay with EKVX NSCLC was over 100 µM each time. Moreover, the TGI in the assay on HCC-2998 colon, in the assay on HCT-116 colon, in the assay with HOP-62 NSCLC, in the assay on MDA-N, in the assay with OVCAR-8 ovarian and with SK-MEL-2 melanoma was over 100 µM in each case. The TGI with SNB-75 CNS, in the assay on SW-620 colon and with UACC-62 melanoma was over 100 µM throughout.
On to `COc1ccc(C2CC(c3ccc(NS(=O)(=O)c4cc([N+](=O)[O-])ccc4C)cc3)=NN2S(=O)(=O)c2cc([N+](=O)[O-])ccc2C)cc1` (configuration not stated), for which the TGI with 786-0 renal, in the assay on A498 renal, in the assay with A549 NSCLC, in the assay with CCRF-CEM leukemia, in the assay on DU-145 prostate and in the assay with EKVX NSCLC was over 100 µM throughout. In addition, the TGI was 57.9 µM with HCC-2998 colon; over 100 µM in the assay on HCT-116 colon; over 100 µM in the assay with HOP-62 NSCLC; over 100 µM in the assay on MDA-N; over 100 µM in the assay with OVCAR-8 ovarian; over 100 µM in the assay with SK-MEL-2 melanoma. The TGI in the assay on SNB-75 CNS, in the assay with SW-620 colon and with UACC-62 melanoma was over 100 µM throughout.
On to `CCCCC(O)(c1ccccc1)C(O)(c1ccccc1)c1c(F)c(F)c(F)c(F)c1F` (configuration not stated), for which the TGI was 39.4 µM in the assay on 786-0 renal; 49.4 µM with A498 renal; over 100 µM in the assay with A549 NSCLC; 88.7 µM in the assay with CCRF-CEM leukemia; over 100 µM with DU-145 prostate; 59.6 µM with EKVX NSCLC. For the same compound, the TGI in the assay on HCC-2998 colon is 31 µM; in the assay on HCT-116 colon, 65 µM; in the assay on HOP-62 NSCLC, 49.5 µM; in the assay on MDA-N, 39.3 µM; with OVCAR-8 ovarian, 55.5 µM; with SNB-75 CNS it was over 100 µM. Moreover, the figures for the TGI in the assay on SW-620 colon and with UACC-62 melanoma were 61.8 µM and 39.2 µM, respectively.
